Results reported in ChEMBL document CHEMBL3045297, “Synthesis and antifungal activity of 2-azetidinonyl-5-(2-benzoylphenoxy)methyl-1,3,4-oxadiazoles against seed-borne pathogens of Eleusine coracana (L.) Gaertn” (2009).

Legend:
Type in all cases: functional
Eleusine coracana [1] = assay: Phytostimulatory activity in Eleusine coracana (finger mellet) seedlings assessed as vigour index at 1 g/L (reference value: 567 +/- 0.5 no unit)
Eleusine coracana [2] = assay: Induction of seed germination in Eleusine coracana (finger mellet) at 20 g/L (reference value: 81 +/- 0.40%)
Eleusine coracana [3] = assay: Induction of seed germination in Eleusine coracana (finger mellet) at 40 g/L (reference value: 81 +/- 0.40%)
Eleusine coracana [4] = assay: Induction of seed germination in Eleusine coracana (finger mellet) at 10 g/L (reference value: 81 +/- 0.40%)
Eleusine coracana [5] = assay: Induction of seed germination in Eleusine coracana (finger mellet) at 1 g/L (reference value: 81 +/- 0.40%)
Pyricularia grisea [6] = assay: Antifungal activity against Magnaporthe grisea infected finger millet seed assessed as fungal occurrence at 40 g/L after 1 week by stereoscopic analysis (reference value: 12.5 +/- 0.35%)
Pyricularia grisea [7] = assay: Antifungal activity against Magnaporthe grisea infected finger millet seed assessed as fungal occurrence at 20 g/L after 1 week by stereoscopic analysis (reference value: 12.5 +/- 0.35%)
Pyricularia grisea [8] = assay: Antifungal activity against Magnaporthe grisea infected finger millet seed assessed as fungal occurrence at 10 g/L after 1 week by stereoscopic analysis (reference value: 12.5 +/- 0.35%)
Pyricularia grisea [9] = assay: Antifungal activity against Magnaporthe grisea infected finger millet seed assessed as fungal occurrence at 1 g/L after 1 week by stereoscopic analysis (reference value: 12.5 +/- 0.35%)
Bipolaris setariae [10] = assay: Antifungal activity against Bipolaris setariae infected finger millet seed assessed as fungal occurrence at 40 g/L after 1 week by stereoscopic analysis (reference value: 18 +/- 0.40%)
Bipolaris setariae [11] = assay: Antifungal activity against Bipolaris setariae infected finger millet seed assessed as fungal occurrence at 20 g/L after 1 week by stereoscopic analysis (reference value: 18 +/- 0.40%)
Bipolaris setariae [12] = assay: Antifungal activity against Bipolaris setariae infected finger millet seed assessed as fungal occurrence at 10 g/L after 1 week by stereoscopic analysis (reference value: 18 +/- 0.40%)
Bipolaris setariae [13] = assay: Antifungal activity against Bipolaris setariae infected finger millet seed assessed as fungal occurrence at 1 g/L after 1 week by stereoscopic analysis (reference value: 18 +/- 0.40%)
Eleusine coracana [14] = assay: Phytostimulatory activity in Eleusine coracana (finger mellet) seedlings assessed as vigour index at 20 g/L (reference value: 567 +/- 0.5 no unit)
Eleusine coracana [15] = assay: Phytostimulatory activity in Eleusine coracana (finger mellet) seedlings assessed as vigour index at 40 g/L (reference value: 567 +/- 0.5 no unit)
Eleusine coracana [16] = assay: Phytostimulatory activity in Eleusine coracana (finger mellet) seedlings assessed as vigour index at 10 g/L (reference value: 567 +/- 0.5 no unit)

Structure (SMILES) | Vigour_index (Eleusine coracana [1]) | Activity (Eleusine coracana [2]) [%] | Activity (Eleusine coracana [3]) [%] | Activity (Eleusine coracana [4]) [%] | Activity (Eleusine coracana [5]) [%] | Activity (Pyricularia grisea [6]) [%] | Activity (Pyricularia grisea [7]) [%] | Activity (Pyricularia grisea [8]) [%] | Activity (Pyricularia grisea [9]) [%] | Activity (Bipolaris setariae [10]) [%] | Activity (Bipolaris setariae [11]) [%] | Activity (Bipolaris setariae [12]) [%] | Activity (Bipolaris setariae [13]) [%] | Vigour_index (Eleusine coracana [14]) | Vigour_index (Eleusine coracana [15]) | Vigour_index (Eleusine coracana [16])
O=C(c1ccccc1)c1cc(Cl)ccc1OCc1nnc(N2C(=O)C(Cl)C2c2cccc(Br)c2)o1 (stereo unspecified) | 544 | 83 | 86 | 83 | 81 | 3 | 4 | 5 | 6 | 6 | 7 | 10 | 11 | 620 | 641 | 585
Cc1ccc(C(=O)c2cc(C)ccc2OCc2nnc(N3C(=O)C(Cl)C3c3cccc(Br)c3)o2)cc1 (stereo unspecified) | 594 | 86 | 83 | 82 | 80 | 1 | 1.5 | 4 | 4 | 1.5 | 2.5 | 6 | 14 | 680 | 659 | 633
Cc1ccc(OCc2nnc(N3C(=O)C(Cl)C3c3cccc(Br)c3)o2)c(C(=O)c2ccc(Cl)cc2)c1 (stereo unspecified) | 588 | 85 | 87 | 85 | 81 | 2 | 3 | 3 | 4 | 4.5 | 5 | 9 | 11 | 645 | 693 | 611
Cc1ccc(OCc2nnc(N3C(=O)C(Cl)C3c3cccc(Br)c3)o2)c(C(=O)c2cccc(Cl)c2)c1 (stereo unspecified) | 581 | 82 | 80 | 80 | 80 | 4.5 | 4.5 | 3.5 | 5 | 6 | 2.5 | 4.5 | 3.5 | 639 | 630 | 590
O=C(c1ccccc1)c1ccc(Br)cc1OCc1nnc(N2C(=O)C(Cl)C2c2cccc(Br)c2)o1 (stereo unspecified) | 572 | 86 | 83 | 86 | 81 | 2.5 | 3.5 | 3.5 | 4 | 2.5 | 3.5 | 4.5 | 13.5 | 655 | 663 | 615
COc1ccc(C(=O)c2cc(C)ccc2OCc2nnc(N3C(=O)C(Cl)C3c3cccc(Br)c3)o2)cc1 (stereo unspecified) | 626 | 90 | 84 | 88 | 85 | 1 | 1 | 2.5 | 3.5 | 2 | 2 | 2.5 | 3.5 | 706 | 688 | 658
O=C(c1cccc(Cl)c1)c1cc(Cl)ccc1OCc1nnc(N2C(=O)C(Cl)C2c2cccc(Br)c2)o1 (stereo unspecified) | 622 | 89 | 90 | 86 | 85 | 0.5 | 0.5 | 1 | 2 | 0.5 | 0.5 | 2 | 2.5 | 711 | 700 | 668
Cc1cc(OCc2nnc(N3C(=O)C(Cl)C3c3cccc(Br)c3)o2)c(C(=O)c2ccccc2)cc1Cl (stereo unspecified) | 661 | 89 | 82 | 86 | 86 | 0 | 1 | 2 | 3 | 2 | 2 | 1 | 2 | 715 | 656 | 677
Cc1ccc(OCc2nnc(N3C(=O)C(Cl)C3c3cccc(Br)c3)o2)c(C(=O)c2ccccc2Cl)c1 (stereo unspecified) | 645 | 86 | 89 | 84 | 82 | 1 | 2 | 3 | 3.5 | 2 | 2 | 3.5 | 4 | 754 | 692 | 674
Cc1ccc(OCc2nnc(N3C(=O)C(Cl)C3c3cccc(Br)c3)o2)c(C(=O)c2ccccc2)c1 (stereo unspecified) | 565 | 84 | 86 | 81 | 80 | 2 | 2.5 | 3.5 | 12 | 1 | 4.5 | 6 | 15 | 589 | 620 | 569
COC(=O)Nc1nc2ccccc2[nH]1 [CARBENDAZIM] | 567 | 85 | 87 | 84 | 82 | 1 | 1 | 1.5 | 1.5 | 2 | 2 | 3 | 3 | 612 | 621 | 579
